Measured values reported in patent publication US20020182590A1, “Determining protein function in cell culture using RNA interference” (Vanderbilt University, priority 2001, published 2002).

System: outwardly rectifying whole-cell currents of C. elegans body wall muscles
Assay: Whole-cell patch clamp recordings from cultured myo-3::GFP-expressing body wall muscle cells
Format: cell-based
Conditions: 20 mM TEA, 3 mM 4-AP
Experimental: FIGS. 3A-3C—Whole-cell recordings from C. elegans body wall muscles. […] Holding potential =−80 mV. […] Values are means±S.E. (n=8). […] Steady-state currents in the presence and absence of the drugs were measured at +80 mV. Drug effects were reversible. Values are means±S.E. (n=3-5).
Electrophysiology. Cells are patch clamped using either the conventional whole-cell mode or perforated patch method. Initially, whole-cell measurements are performed using “physiological” pipette and bath solutions. The composition of C. elegans extracellular and intracellular fluids is currently unknown. Ascaris bath Ringer's (Richmond & Jorgenson, 1999) and conventional high K^+, low Na^+ and Cl^− pipette solutions are used. Standard voltage clamp protocols are used to assess the voltage-dependence of channels responsible for whole-cell currents.
For these experiments, the inventors mimicked the experimental protocol and bath and pipette solutions used recently for in vivo patch clamp studies of C. elegans body wall muscles (Richmond et al., 1999). When cultured body muscles were patch clamped with a pipette solution containing 120 mM KCl (Richmond et al., 1999), slowly inactivating, strongly outwardly rectifying currents were observed (FIG. 3). These currents were inhibited 40% by 20 mM TEA and 85% by 20 mM TEA plus 3 mM 4-aminopyridine (4-AP). […]

## CC[N+](CC)(CC)CC [TEA]
  reversibility of drug effects on currents: reversible
Bath addition, steady-state currents at +80 mV, pipette 120 mM KCl
  inhibition of whole-cell currents: 40%
